The text below walks through data of PubChem BioAssay (NCI).

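Cells were grown in 96-well plates and exposed to each compound for 48 hours at five concentrations; endpoints were interpolated linearly between bracketing concentrations, or set to the highest concentration if not reached. At the TGI there is no net growth.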

Among the test systems are SF-295 CNS; SF-268 CNS; M14 melanoma; HL-60(TB) leukemia; HCT-15 colon; LOX IMVI melanoma; HS 578T breast; COLO 205 colon; UO-31 renal; SK-MEL-2 melanoma; RXF 393 renal; HCT-116 colon; DU-145 prostate; UACC-257 melanoma; SR leukemia.
What all share (assay): inhibition of tumour cell growth, NCI panel, 48 h

As for `C/C(Cc1ccc2c(c1)OCO2)=N\NC(=O)C(C)Sc1nnc(SC(C)C(=O)N/N=C(\C)Cc2ccc3c(c2)OCO3)s1` (stereo not given), the TGI in the assay on SF-295 CNS, in the assay with SF-268 CNS, in the assay with M14 melanoma, in the assay with HL-60(TB) leukemia, in the assay on HCT-15 colon and with LOX IMVI melanoma was greater than 100 µM in each case. Besides, the TGI with HS 578T breast, with COLO 205 colon, in the assay on UO-31 renal, with SK-MEL-2 melanoma, in the assay on RXF 393 renal and in the assay with HCT-116 colon was greater than 100 µM each time. The TGI in the assay with DU-145 prostate and with UACC-257 melanoma was greater than 100 µM in each case.

For `CN(C)c1ccc(/C=C/c2cc(-c3ccccc3)[n+](C)n2-c2ccccc2)cc1`, the TGI is greater than 30 µM with SR leukemia; 16.2 µM in the assay with SF-295 CNS; 4.77 µM in the assay on SF-268 CNS; greater than 34.7 µM in the assay with M14 melanoma; 0.128 µM with HL-60(TB) leukemia; 14.5 µM in the assay with HCT-15 colon. Moreover, the TGI turned out to be 14.2 µM in the assay with LOX IMVI melanoma; 0.248 µM with HS 578T breast; 0.42 µM in the assay on COLO 205 colon; 6.66 µM in the assay with UO-31 renal; 0.953 µM in the assay on SK-MEL-2 melanoma; 4.18 µM in the assay with RXF 393 renal. The TGI in the assay on HCT-116 colon is 14.1 µM; in the assay on DU-145 prostate it was 22.7 µM; in the assay with UACC-257 melanoma, 26.8 µM.

With `COC(=O)C1C=CCON2CCc3c(n(S(=O)(=O)c4ccccc4)c4ccccc34)C12` (stereo not given), the TGI in the assay with SR leukemia is greater than 100 µM; in the assay with SF-295 CNS it was greater than 100 µM; with SF-268 CNS, greater than 100 µM; with M14 melanoma, greater than 100 µM; in the assay on HL-60(TB) leukemia, greater than 67.2 µM; with HCT-15 colon, greater than 72.9 µM. Also, the TGI in the assay with LOX IMVI melanoma was greater than 60.9 µM; with COLO 205 colon, greater than 68.9 µM; in the assay on UO-31 renal it was greater than 100 µM; in the assay on SK-MEL-2 melanoma it was greater than 100 µM; with RXF 393 renal, greater than 100 µM; in the assay on HCT-116 colon it was greater than 80.7 µM. The TGI in the assay on UACC-257 melanoma is greater than 90.3 µM.

On to `COc1ccc(/C(=N\Nc2ccccn2)c2ccccn2)cc1`, for which the TGI is greater than 33.7 µM in the assay with SR leukemia; 3.54 µM in the assay with SF-295 CNS; 13.1 µM with SF-268 CNS; 3.76 µM in the assay on M14 melanoma; 18.4 µM with HL-60(TB) leukemia; 12.5 µM in the assay with HCT-15 colon. Further, the TGI with HS 578T breast was 18.4 µM; in the assay with COLO 205 colon, 12.1 µM; in the assay with UO-31 renal, 0.629 µM; with SK-MEL-2 melanoma, 30.2 µM; with RXF 393 renal, 36.6 µM; with HCT-116 colon it was 17.4 µM. Further, the values for the TGI in the assay with DU-145 prostate and with UACC-257 melanoma were greater than 100 µM and 17.4 µM, respectively.

On to `Cc1cccc2c1c(=O)c1c(O)cc(O)cc1n2C`, for which the TGI with SR leukemia, in the assay with SF-295 CNS, in the assay with SF-268 CNS, with M14 melanoma, with HL-60(TB) leukemia and in the assay on HCT-15 colon was greater than 100 µM each time. The TGI in the assay with LOX IMVI melanoma, in the assay with HS 578T breast, in the assay with COLO 205 colon, with SK-MEL-2 melanoma, with RXF 393 renal and in the assay on HCT-116 colon was greater than 100 µM in each case. Also, the TGI with DU-145 prostate and with UACC-257 melanoma was greater than 100 µM in each case.

For `O=c1c2c(c1=O)-c1ccccc1CN2`, the TGI in the assay on SF-268 CNS, in the assay with M14 melanoma, with HL-60(TB) leukemia, with HCT-15 colon, with LOX IMVI melanoma and in the assay on COLO 205 colon was greater than 100 µM each time. Further, the TGI with UO-31 renal, in the assay on SK-MEL-2 melanoma, in the assay on RXF 393 renal, with HCT-116 colon and with UACC-257 melanoma was greater than 100 µM throughout.

On to `CC(C)[C@@H](C)[C@@]1(C)C[C@@H]1[C@@H](C)[C@H]1CC[C@@H]([C@@H]2CC=C3C[C@@H](O)CC[C@]3(C)C2=O)[C@]1(C)CCO`, for which the TGI with SR leukemia was 13.3 µM; with SF-295 CNS it was 21.2 µM; in the assay with SF-268 CNS, 30.3 µM; with HL-60(TB) leukemia, 5.2 µM; with HCT-15 colon it was 17.4 µM; in the assay with LOX IMVI melanoma, 15.4 µM. The TGI in the assay on HS 578T breast was 25.2 µM; in the assay on COLO 205 colon, 24.3 µM; in the assay on UO-31 renal it was 28.5 µM; in the assay on SK-MEL-2 melanoma, 33.3 µM; in the assay on RXF 393 renal, 11.5 µM; with HCT-116 colon, 21.6 µM. Also, the figures for the TGI in the assay on DU-145 prostate and in the assay with UACC-257 melanoma were 28.7 µM and 27.4 µM, respectively.

`CCOC(=O)C1(Br)S(=O)(=O)OCCOS1(=O)=O`: the TGI with SR leukemia, in the assay with SF-295 CNS, with SF-268 CNS, with M14 melanoma, in the assay with HL-60(TB) leukemia and in the assay with HCT-15 colon was greater than 100 µM in each case. Further, the TGI in the assay on LOX IMVI melanoma, in the assay on COLO 205 colon, in the assay on UO-31 renal, with SK-MEL-2 melanoma, with RXF 393 renal and in the assay on HCT-116 colon was greater than 100 µM in each case. The TGI in the assay with UACC-257 melanoma is greater than 100 µM.

For `CCCN(CCC)C1=Nc2ccccc2-n2cnnc2C1`, the TGI with SR leukemia, in the assay on SF-295 CNS, with SF-268 CNS, in the assay with M14 melanoma, with HL-60(TB) leukemia and in the assay on HCT-15 colon was greater than 100 µM each time. Besides, the TGI in the assay with LOX IMVI melanoma, in the assay with COLO 205 colon, with UO-31 renal, with SK-MEL-2 melanoma, in the assay on RXF 393 renal and with HCT-116 colon was greater than 100 µM throughout.

For the compound `C=C1Cc2cc(OC)c(OC)c(OC)c2-c2ccc(SC)c(=O)cc21`, the TGI with SR leukemia is greater than 100 µM; in the assay with SF-295 CNS it was 4.12 µM; with SF-268 CNS it was 1.42 µM; in the assay with HCT-15 colon, 1.17 µM; in the assay with LOX IMVI melanoma it was 0.343 µM; with COLO 205 colon, less than 0.0318 µM. The TGI with UO-31 renal is 6.96 µM; in the assay with SK-MEL-2 melanoma it was less than 0.01 µM; with RXF 393 renal, 10.4 µM; in the assay on UACC-257 melanoma it was 7.62 µM.
